The source of these data is ChEMBL document CHEMBL1134713, “Synthesis of a novel series of cytotoxic bisindole alkaloids” (Bioorg Med Chem Lett, 2001).

Test [1] relates to L1210. Kind of test: Cytotoxicity against L1210 cell proliferation, measured using microculture tetrazolium assay (MTA). Format: functional, cell-based, Mus musculus.
Test [2] relates to L1210. Kind of test: Evaluated for the dose-dependent accumulation and percent of cells in G1 phase was determined at a concentration of 25 uM. The test is classed as functional, Mus musculus.
Test [3] deals with L1210. Kind of test: Compound was evaluated for the percent stimulation of cell proliferation at a concentration of 10 uM. The test is classed as functional, Mus musculus.
Test [4] deals with L1210. Kind of test: Evaluated for the dose-dependent accumulation and percent of cells in G1 phase was determined at a concentration of 5 uM. Format: functional, Mus musculus.
Test [5] has as its system L1210. Description: Evaluated for the dose-dependent accumulation and percent of cells in G1 phase was determined at a concentration of 20 uM. The test is classed as functional, Mus musculus.
The test system of test [6] is L1210. Description: Evaluated for the dose-dependent accumulation and percent of cells in G1 phase was determined at a concentration of 50 uM. The test is classed as functional, Mus musculus.
The test system of test [7] is L1210. Description: Evaluated for the dose-dependent accumulation and percent of cells in G1 phase was determined at a concentration of 10 uM. The test is classed as functional, Mus musculus.

By IC50 is commonly meant the midpoint of a concentration-inhibition curve. Low values mean greater potency in that assay, high ones weaker potency in that assay. `CC[C@]12C=C(C(=O)OC)c3c(CC4Nc5ccc(O)cc5C(OC)C4c4c5n(c6ccccc46)[C@H]4N(O)CCC[C@@]4(CC)C=C5C(=O)OC)c4ccccc4n3[C@H]1N(O)CCC2` (some centres not stated) showed a half-maximal inhibitory concentration (IC50) with L1210 [1] (Mus musculus, L1210) of 0.9 µM. In other words, the sub-micromolar range.
Consider `CC[C@]12C=C(C(=O)OC)c3c(CC4Nc5ccccc5CC4c4c5n(c6ccccc46)[C@H]4N(O)CCC[C@@]4(CC)C=C5C(=O)OC)c4ccccc4n3[C@H]1N(O)CCC2` (stereo in doubt; 1), for which 2.7 µM corresponded to half-maximal inhibition with L1210 [1] (l1210) (IC50). In the test on L1210 [2], this compound gave a Cells of 80%.
Take `CC[C@]12C=C(C(=O)OC)c3c(CC4Nc5c(Cl)cccc5C(Nc5ccccc5Cl)C4c4c5n(c6ccccc46)[C@H]4N(O)CCC[C@@]4(CC)C=C5C(=O)OC)c4ccccc4n3[C@H]1N(O)CCC2` (some centres not stated): the IC50 in the test on L1210 [1] (Mus musculus, L1210) was above 10 µM.
`CC[C@]12C=C(C(=O)OC)c3c(CC4Nc5cc(Cl)cc(Cl)c5C(Nc5cc(Cl)cc(Cl)c5)C4c4c5n(c6ccccc46)[C@H]4N(O)CCC[C@@]4(CC)C=C5C(=O)OC)c4ccccc4n3[C@H]1N(O)CCC2` (some centres not stated) displayed an IC50 with L1210 [1] (Mus musculus, L1210) above 10 µM. The compound also gave a Stimulation in the test on L1210 [3] of 156%.
In turn, `CC[C@]12C=C(C(=O)OC)c3c(CC4Nc5ccc(F)cc5CC4c4c5n(c6ccccc46)[C@H]4N(O)CCC[C@@]4(CC)C=C5C(=O)OC)c4ccccc4n3[C@H]1N(O)CCC2` (some centres not stated) yielded a half-inhibitory concentration (IC50) with L1210 [1] (Mus musculus, L1210) of 1.8 µM. In the test on L1210 [4], this compound gave a Cells of 81%.
For `CC[C@]12C=C(C(=O)OC)c3c(CC4Nc5cc(OC)c(OC)c(OC)c5CC4c4c5n(c6ccccc46)[C@H]4N(O)CCC[C@@]4(CC)C=C5C(=O)OC)c4ccccc4n3[C@H]1N(O)CCC2` (some centres not stated) the same measures were 2.4 µM and 61%.
As to `CCOC(=O)c1ccc(NC2c3cc(C(=O)OCC)ccc3NC(Cc3c4n(c5ccccc35)[C@H]3N(O)CCC[C@@]3(CC)C=C4C(=O)OC)C2c2c3n(c4ccccc24)[C@H]2N(O)CCC[C@@]2(CC)C=C3C(=O)OC)cc1` (some centres not stated), the IC50 in the test with L1210 [1] (Mus musculus, L1210) is above 10 µM. In addition, the Stimulation in the test on L1210 [3] is 118%.
Regarding `CC[C@]12C=C(C(=O)OC)c3c(CC4Nc5c(F)cccc5C(Nc5ccccc5F)C4c4c5n(c6ccccc46)[C@H]4N(O)CCC[C@@]4(CC)C=C5C(=O)OC)c4ccccc4n3[C@H]1N(O)CCC2` (some centres not stated), the 50% inhibitory concentration (IC50) with L1210 [1] (Mus musculus, L1210) turned out to be 14.1 µM. That is a double-digit micromolar value.
On to `CC[C@]12C=C(C(=O)OC)c3c(CC4Nc5ccc(OC)cc5CC4c4c5n(c6ccccc46)[C@H]4N(O)CCC[C@@]4(CC)C=C5C(=O)OC)c4ccccc4n3[C@H]1N(O)CCC2` (some centres not stated), for which the IC50 in the test with L1210 [1] (Mus musculus, L1210) is 2.2 µM. In addition, the Cells with L1210 [5] is given as 69%.
The matching figures for `CC[C@]12C=C(C(=O)OC)c3c(CC4Nc5ccc(OC)cc5C(OC)C4c4c5n(c6ccccc46)[C@H]4N(O)CCC[C@@]4(CC)C=C5C(=O)OC)c4ccccc4n3[C@H]1N(O)CCC2` (some centres not stated): 1.7 µM and 81%.
Regarding `CC[C@]12C=C(C(=O)OC)c3c(CC4Nc5cc(Cl)cc(Cl)c5CC4c4c5n(c6ccccc46)[C@H]4N(O)CCC[C@@]4(CC)C=C5C(=O)OC)c4ccccc4n3[C@H]1N(O)CCC2` (some centres not stated), the IC50 with L1210 [1] (Mus musculus, L1210) is above 10 µM.
Compound `CC[C@]12C=C(C(=O)OC)c3c(CC4Nc5ccccc5CC4c4c5n(c6ccccc46)[C@H]4N(O)CCC[C@@]4(CC)C=C5C(=O)OC)c4ccccc4n3[C@H]1N(O)CCC2` (stereo in doubt; 6) displayed a concentration for half-maximal inhibition (IC50) in the test with L1210 [1] (l1210) of 71 µM. Further, in the test on L1210 [6], the Cells was 4.5%.
`CC[C@]12C=C(C(=O)OC)c3c(CC4Nc5ccc(C(F)(F)F)cc5C(Nc5ccc(C(F)(F)F)cc5)C4c4c5n(c6ccccc46)[C@H]4N(O)CCC[C@@]4(CC)C=C5C(=O)OC)c4ccccc4n3[C@H]1N(O)CCC2` (some centres not stated) displayed an IC50 with L1210 [1] (Mus musculus, L1210) above 10 µM. The same compound registered a Stimulation with L1210 [3] of 152%.
For `CC[C@]12C=C(C(=O)OC)c3c(CC4Nc5ccc(Cl)cc5C(Nc5ccc(Cl)cc5)C4c4c5n(c6ccccc46)[C@H]4N(O)CCC[C@@]4(CC)C=C5C(=O)OC)c4ccccc4n3[C@H]1N(O)CCC2` (some centres not stated), the IC50 in the test with L1210 [1] (Mus musculus, L1210) is above 10 µM. In the test with L1210 [3], this compound displayed a Stimulation of 126%.
With `CC[C@]12C=C(C(=O)OC)c3c(CC4Nc5ccc(Cl)cc5CC4c4c5n(c6ccccc46)[C@H]4N(O)CCC[C@@]4(CC)C=C5C(=O)OC)c4ccccc4n3[C@H]1N(O)CCC2` (some centres not stated), in the test with L1210 [1] (Mus musculus, L1210), half-maximal inhibition (IC50) was put at 3.6 µM. In the test with L1210 [7], the Cells worked out at 77%.
Take `CC[C@]12C=C(C(=O)OC)c3c(CCNc4ccc(F)cc4)c4ccccc4n3[C@H]1N(O)CCC2`: the IC50 in the test on L1210 [1] (Mus musculus, L1210) was determined as 15.4 µM.
